Data: patent US20210145834A1, “COMBINATION OF POZIOTINIB WITH CYTOTOXIC AGENT AND/OR OTHER MOLECULARLY TARGETED AGENT AND USE THEREOF” (Spectrum Pharmaceuticals, Inc., priority 2018, published 2021)
“And” between values parts separate entries of the source, which are not always exact repeats. Equal values may be shown once. Read-outs that look alike come from different tables or passages of the source.

Columns and labels:
Type in all cases: cell-based
BT-474 cells = experiment: Cell growth inhibition assay (sulforhodamine B), single agents and combinations; settings: BT-474, single agent, 3 days
Procedure: (§1) The effect of the inventive compositions on the cancer cell growth inhibition was conducted in EGFR-overexpressed or -mutated cancer cell lines.
(§2) All cells except for H1975 were cultured for 72 hours prior to cell plating. Cells were seeded in a 96-well plate at 4 to 15×10^3 cells/well. Approximately 24 hours after plating, cells were exposed to ten, two-fold or three fold serial dilutions of test individual compounds or the combination of the two test compounds at a constant molar to molar ratio or non-constant ratio of two agents. Cells were incubated in the presence of compounds for 3 days except for H1975, which was for 2 days at 3×10^3 cells/well.
(§3) Cell growth inhibition based on measurement of cellular protein content is determined by sulforhodamine B colorimetric assay according to the “Nat Protoc. […] The absorbance was read on a SpectraMax™ plate reader at 540 nm. For H1975 cells, cell growth (%) is determined by adding CellTiter™ 96 Aqueous One Solution Cell Proliferation Assay reagent (Promega) according to the manufacturer's protocol.
(§4) Inhibition of cell growth was estimated after treatment with test agent or combination of test agents for incubating time (2-3 days) and comparing the signal to cells treated with vehicle (DMSO). Cell growth (%) was calculated by following equations.
(§5) Percentage growth inhibition was calculated using:
(§6) a. [(Ti−Tz)/(C−Tz)]×100, for concentrations for which Ti=Tz
(§7) b. [(Ti−Tz)/Tz]×100, for concentrations for which Ti<Tz
(§8) Each T value means an absorbance. Tz: Time zero (cell density group before the treatment of test group), C:100% control growth […] test agent, Ti: Test growth in the presence of drug at the concentration levels.
(§9) Combination effects on potency were evaluated by combination Index using Calcusyn™ Software. The range of Combination Index (CI) for two compounds is described in Table 2.
(§10) Fifty percent growth inhibition values (GI50) for combinations of poziotinib with partner drugs were calculated and the single dosing growth inhibition (%) at the dose of combo GI50 were also calculated by using GraphPad Prism™ v6. The combination Index (CI) at the dose of combination GI50 was evaluated by using CalcuSyn™ (Biosoft).

HCC827 cells = experiment: as above; settings: HCC827, single agent, 3 days
Procedure: as §1, §2, §3, §4, §5, §6, §7, §8, §9, §10

MDA-MB-453 cells = experiment: as above; settings: MDA-MB-453, single agent, 3 days
Procedure: as §1, §2, §3, §4, §5, §6, §7, §8, §9, §10

SK-BR-3 cell line = experiment: Synergy effect study on cell proliferation (Example 2), single agents and 6x6 combo matrix; settings: SK-BR-3, single compound, 3 days
Procedure: In this example, effects of direct cell killing of selected cancer cell line Calu-3, BT-474 and SK-BR-3 treated with Poziotinib alone or in combination with other agents were assessed.
All cells were cultured in the media listed in the temperature of 37° C., 5% CO2 and 95% humidity. Cells were seeded in a 96-well plate at 4 to 15×10^3 cells/well. Approximately 24 hours after plating, cells were exposed to ten, two-fold or three fold serial dilutions of test individual compounds or the combination of the two test compounds at a constant molar to molar ratio or non-constant ratio of two agents. Cells were incubated in the presence of compounds for 3 days.
as §4
(§11) Percentage growth inhibition was calculated using both Bliss independence model and Lowewe additivity model. A score higher than 5 indicates synergy and a score less that −5 indicates antagonism.
Calu-3, BT-474 or SK-BR-3 cell lines were tested with Poziotinib combined with a second compound respectively in a 6×6 combo matrix for 3 days at 37° C., 5% CO2 and 95% humidity as shown in combinations shown in the tables herein below: […]

H1975 cells = experiment: Cell growth inhibition assay (CellTiter 96 Aqueous One), single agents and combinations; settings: H1975, single agent, 2 days
Procedure: as §1, §2, §3, §4, §5, §6, §7, §8, §9, §10

BT-474 cell line = experiment: Synergy effect study on cell proliferation (Example 2), single agents and 6x6 combo matrix; settings: BT-474, single compound; for IC50 / Max inh.: 3 days
Procedure: (§12) Cells were seeded in a 96-well plate at 4 to 15×10^3 cells/well. Approximately 24 hours after plating, cells were exposed to ten, two-fold or three fold serial dilutions of test individual compounds or the combination of the two test compounds at a constant molar to molar ratio or non-constant ratio of two agents. Cells were incubated in the presence of compounds for 3 days.
as §4, §11

Calu-3 cell line = experiment: as above; settings: Calu-3, single compound; for Max inh. / IC50: 3 days
Procedure: as §12, §4, §11

SK-BR-3 cells = experiment: Cell growth inhibition assay (sulforhodamine B), single agents and combinations; settings: Homo sapiens, SK-BR-3, 72 h; SK-BR3, single agent, 3 days
Procedure: as §1, §2, §3, §4, §5, §6, §7, §8, §9, §10

MDA-MB-468 cells = experiment: as above; settings: Homo sapiens, 72 h; MDA-MB-468, single agent, 3 days
Procedure: as §1, §2, §3, §4, §5, §6, §7, §8, §9, §10

MDA-MB-361 cells = experiment: as above; settings: Homo sapiens, 72 h; MDA-MB-361, single agent, 3 days
Procedure: as §1, §2, §3, §4, §5, §6, §7, §8, §9, §10

MCF-7 cells = experiment: as above; settings: Homo sapiens, MCF7, 72 h; MCF-7, single agent, 3 days
Procedure: as §1, §2, §3, §4, §5, §6, §7, §8, §9, §10

N87 cells = experiment: as above; settings: 72 h; N87, single agent, 3 days
Procedure: as §1, §2, §3, §4, §5, §6, §7, §8, §9, §10

TE-4 cells = experiment: as above; settings: 72 h; TE-4, single agent, 3 days
Procedure: The effect of the inventive compositions on the cancer cell growth inhibition was conducted in EGFR-overexpressed or -mutated cancer cell lines. […] All cells except for H1975 were cultured for 72 hours prior to cell plating. […] Approximately 24 hours after plating, cells were exposed to ten, two-fold or three fold serial dilutions of test individual compounds or the combination of the two test compounds at a constant molar to molar ratio or non-constant ratio of two agents. Cells were incubated in the presence of compounds for 3 days except for H1975, which was for 2 days at 3×10^3 cells/well. Cell growth inhibition based on measurement of cellular protein content is determined by sulforhodamine B colorimetric assay according to the “Nat Protoc. […] The absorbance was read on a SpectraMax™ plate reader at 540 nm. For H1975 cells, cell growth (%) is determined by adding CellTiter™ 96 Aqueous One Solution Cell Proliferation Assay reagent (Promega) according to the manufacturer's protocol. […] Cell growth (%) was calculated by following equations. Percentage growth inhibition was calculated using: a. […] [(Ti−Tz)/Tz]×100, for concentrations for which Ti<Tz Each T value means an absorbance. […] Combination effects on potency were evaluated by combination Index using Calcusyn™ Software. […] The combination Index (CI) at the dose of combination GI50 was evaluated by using CalcuSyn™ (Biosoft).

[1] = Homo sapiens, Calu-3, 72 h, read-out: IC50

Molecule: N.N.[Cl][Pt][Cl] [Cisplatin]
- GI50 (BT-474 cells): > 20000 nM
- GI50 (HCC827 cells): > 20000 nM
- GI50 (MDA-MB-453 cells): > 10000 nM
- IC50 (SK-BR-3 cell line): 549 nM
- Max inh. (SK-BR-3 cell line): 98.11%
- GI50 (H1975 cells): > 10000 nM
- IC50 (BT-474 cell line): > 100000 nM
- Max inh. (BT-474 cell line): 41.78% and 37.43%
- Max inh. (Calu-3 cell line): 59.75% and 69.39% and 68.77%

Molecule: N#Cc1ccc(C(c2ccc(C#N)cc2)n2cncn2)cc1 [Letrozole]
- cell inhibitory activity (in words) (BT-474 cell line): weak or no response
- Max inh. (BT-474 cell line): −15.80%
- IC50 (BT-474 cell line; Homo sapiens, 72 h): > 10000 nM

Molecule: CCC1=C[C@@H]2CN(C1)Cc1c([nH]c3ccccc13)[C@@](C(=O)OC)(c1cc3c(cc1OC)N(C)[C@H]1[C@@](O)(C(=O)OC)[C@H](OC(C)=O)[C@]4(CC)C=CCN5CC[C@]31[C@@H]54)C2 [Vinorelbine]
- GI50 (BT-474 cells; Homo sapiens, BT-474, 72 h): 2.3 nM
- GI50 (SK-BR-3 cells): 1.7 nM
- GI50 (MDA-MB-468 cells): 0.3 nM
- GI50 (MDA-MB-361 cells): 1.1 nM
- GI50 (MCF-7 cells): 3.6 nM

Molecule: Nc1nc2[nH]cc(CCc3ccc(C(=O)N[C@@H](CCC(=O)O)C(=O)O)cc3)c2c(=O)[nH]1 [Pemetrexed]
- cell inhibitory activity (in words) (BT-474 cell line): not effective
- Max inh. (BT-474 cell line): 1.78%
- IC50 (BT-474 cell line; Homo sapiens, 72 h): > 10000 nM
- cell inhibitory activity (in words) (Calu-3 cell line): not effective
- Max inh. (Calu-3 cell line): 49.78%
- IC50 (Calu-3 cell line; [1]): > 10000 nM

Molecule: CC(=O)c1c(C)c2cnc(Nc3ccc(N4CCNCC4)cn3)nc2n(C2CCCC2)c1=O [Palbociclib]
- Max inh. (BT-474 cell line): 12.13%
- IC50 (BT-474 cell line; Homo sapiens, 72 h): > 5000 nM

Molecule: CO[C@H]1C[C@@H]2CC[C@@H](C)[C@@](O)(O2)C(=O)C(=O)N2CCCC[C@H]2C(=O)O[C@H]([C@H](C)C[C@@H]2CC[C@@H](OC(=O)C(C)(CO)CO)[C@H](OC)C2)CC(=O)[C@H](C)/C=C(\C)[C@@H](O)[C@@H](OC)C(=O)[C@H](C)C[C@H](C)/C=C/C=C/C=C/1C [Temsirolimus]
- Max inh. (Calu-3 cell line): 58.19%
- IC50 (Calu-3 cell line; [1]): 167 nM

Molecule: C=CC(=O)N1CCC(Oc2cc3c(Nc4ccc(Cl)c(Cl)c4F)ncnc3cc2OC)CC1 [Poziotinib, 1-[4-[4-(3,4-dichloro-2-fluoroanilino)-7-methoxyquinazolin-6-yl]oxypiperidin-1-yl]prop-2-en-1-one]
- GI50 (BT-474 cells; Homo sapiens, BT-474, 72 h): 0.5 nM
- GI50 (HCC827 cells; Homo sapiens, 72 h): 0.4 nM
- GI50 (N87 cells): 0.1 nM
- GI50 (SK-BR-3 cells): 0.9 nM
- GI50 (MDA-MB-468 cells): 640 nM
- GI50 (MDA-MB-361 cells): 21 nM
- GI50 (MCF-7 cells): 2740 nM
- GI50 (MDA-MB-453 cells; Homo sapiens, MDA-MB-453, 72 h): 2.5 nM
- IC50 (SK-BR-3 cell line; Homo sapiens, 72 h): 1 nM
- Max inh. (SK-BR-3 cell line): 57.81%
- GI50 (TE-4 cells): 0.8 nM
- GI50 (H1975 cells): 1.3 nM
- Max inh. (BT-474 cell line): 71.74%
- IC50 (BT-474 cell line; listed as Pozotinb): < 1.5 nM
- Max inh. (BT-474 cell line; listed as Pozotinb): 68.16%
- IC50 (BT-474 cell line; Homo sapiens, 72 h): < 1.5 nM
- Max inh. (Calu-3 cell line): 94.51% and 81.67%
- Max inh. (Calu-3 cell line; listed as Pozotinb): 89.22%

Molecule: ado-trastuzumab emtansine [T-DM1]
- Max inh. (SK-BR-3 cell line): 85.37%
- IC50 (Calu-3 cell line): 90.449 µg/mL
- Max inh. (Calu-3 cell line): 55.24%

Molecule: CC(=O)O[C@H]1C(=O)[C@@]2(C)[C@H]([C@H](OC(=O)c3ccccc3)[C@]3(O)C[C@H](OC(=O)[C@H](O)[C@@H](NC(=O)c4ccccc4)c4ccccc4)C(C)=C1C3(C)C)[C@]1(OC(C)=O)CO[C@@H]1C[C@@H]2O [Paclitaxel]
- GI50 (BT-474 cells; Homo sapiens, BT-474, 72 h): 1 nM
- GI50 (HCC827 cells; Homo sapiens, 72 h): 3.4 nM
- GI50 (MDA-MB-453 cells; Homo sapiens, MDA-MB-453, 72 h): 3 nM
- GI50 (H1975 cells; Homo sapiens, NCI-H1975, 48 h): 21.6 nM

Molecule: CNC(=O)c1cc(Oc2ccc(NC(=O)Nc3ccc(Cl)c(C(F)(F)F)c3)cc2)ccn1 [Sorafenib]
- Max inh. (Calu-3 cell line): 64.29%
- IC50 (Calu-3 cell line; [1]): 4480 nM

Molecule: CC(=O)Nc1cccc(-n2c(=O)n(C3CC3)c(=O)c3c(Nc4ccc(I)cc4F)n(C)c(=O)c(C)c32)c1 [Trametinib]
- Max inh. (BT-474 cell line): 15.91%
- IC50 (BT-474 cell line; Homo sapiens, 72 h): > 10000 nM
- Max inh. (Calu-3 cell line): 89.69%
- IC50 (Calu-3 cell line; [1]): 42 nM

Molecule: O=c1[nH]cc(F)c(=O)[nH]1 [5-FU, Fluorouracil]
- GI50 (BT-474 cells; Homo sapiens, BT-474, 72 h): 9000 nM
- GI50 (HCC827 cells; Homo sapiens, 72 h): 980 nM
- GI50 (MDA-MB-453 cells; Homo sapiens, MDA-MB-453, 72 h): 385 nM
- GI50 (TE-4 cells): 7900 nM
- GI50 (H1975 cells; Homo sapiens, NCI-H1975, 48 h): > 10000 nM
